Converted amounts (≈) assume the structure as drawn.
Key:
Format in all cases: functional
Plutella xylostella [1] = assay: Insecticidal activity against third-instar larval stage of Plutella xylostella (diamondback moth) in cabbage leaves assessed as mortality treated for 10 secs before larva infestation measured for 3 days by dipping method; conditions: 72 h
Plutella xylostella [2] = assay: Insecticidal activity against third-instar larval stage of Plutella xylostella (diamondback moth) in cabbage leaves assessed as mortality at 0.1 ug/ml treated for 10 secs before larva infestation measured for 3 days by dipping method; conditions: 72 h
Plutella xylostella [3] = assay: Insecticidal activity against third-instar larval stage of Plutella xylostella (diamondback moth) in cabbage leaves assessed as mortality at 0.5 ug/ml treated for 10 secs before larva infestation measured for 3 days by dipping method; conditions: 72 h
Plutella xylostella [4] = assay: Insecticidal activity against third-instar larval stage of Plutella xylostella (diamondback moth) in cabbage leaves assessed as mortality at 1 ug/ml treated for 10 secs before larva infestation measured for 3 days by dipping method; conditions: 72 h
Plutella xylostella [5] = assay: Insecticidal activity against third-instar larval stage of Plutella xylostella (diamondback moth) in cabbage leaves assessed as mortality at 5 ug/ml treated for 10 secs before larva infestation measured for 3 days by dipping method; conditions: 72 h
Plutella xylostella [6] = assay: Insecticidal activity against third-instar larval stage of Plutella xylostella (diamondback moth) in cabbage leaves assessed as mortality at 10 ug/ml treated for 10 secs before larva infestation measured after 2 days by dipping method; conditions: 48 h
Plutella xylostella [7] = assay: Insecticidal activity against third-instar larval stage of Plutella xylostella (diamondback moth) in cabbage leaves assessed as mortality at 100 ug/ml treated for 10 secs before larva infestation measured after 2 days by dipping method; conditions: 48 h
Plutella xylostella [8] = assay: Insecticidal activity against third-instar larval stage of Plutella xylostella (diamondback moth) in cabbage leaves assessed as mortality at 100 ug/ml treated for 10 secs before larva infestation measured after 3 days by dipping method; conditions: 72 h
Plutella xylostella [9] = assay: Insecticidal activity against third-instar larval stage of Plutella xylostella (diamondback moth) in cabbage leaves assessed as mortality at 10 ug/ml treated for 10 secs before larva infestation measured after 3 days by dipping method; conditions: 72 h

SMILES	mortality at 10 µg/mL (Plutella xylostella [6]) [%]	mortality at 100 µg/mL (Plutella xylostella [7]) [%]	mortality at 100 µg/mL (Plutella xylostella [8]) [%]	further results
CSCC(C)(C)NC(=O)c1c(I)cccc1C(=O)Nc1ccc(Cl)c(C(F)(F)F)c1	100	100	–	LC50 (Plutella xylostella [1]): 0.42 µg/mL (≈ 0.736 µM); mortality at 0.1 µg/mL (Plutella xylostella [2]): 0%; mortality at 0.5 µg/mL (Plutella xylostella [3]): 57%; mortality at 1 µg/mL (Plutella xylostella [4]): 62%; mortality at 5 µg/mL (Plutella xylostella [5]): 100%
COc1ccc(C(F)(F)F)cc1NC(=O)c1cccc(I)c1C(=O)NC(C)(C)C	–	0	0	–
COCC(C)(C)NC(=O)c1c(I)cccc1C(=O)Nc1cccc(C(F)(F)F)c1	0	60	100	mortality at 10 µg/mL (Plutella xylostella [9]): 13%
CC(C)(CS(C)(=O)=O)NC(=O)c1c(I)cccc1C(=O)Nc1cc(C(F)(F)F)cc(C(F)(F)F)c1	–	40	90	–
COc1ccc(C(F)(F)F)cc1NC(=O)c1cccc(I)c1C(=O)NC(C)(C)CS(C)(=O)=O	–	0	0	–
COc1ccc(C(F)(F)F)cc1NC(=O)c1cccc(I)c1C(=O)NC(C)(C)CSC	–	5	5	–
CC(C)(C)NC(=O)c1c(I)cccc1C(=O)Nc1ccc(Cl)c(C(F)(F)F)c1	20	85	100	mortality at 10 µg/mL (Plutella xylostella [9]): 70%
COc1ccc(NC(=O)c2cccc(I)c2C(=O)NC(C)(C)C)cc1C(F)(F)F	–	0	5	–
CC(C)(C)NC(=O)c1c(I)cccc1C(=O)Nc1cc(F)cc(C(F)(F)F)c1	–	14	76	–
CSCC(C)(C)NC(=O)c1c(I)cccc1C(=O)Nc1ccc(F)c(C(F)(F)F)c1	100	100	–	mortality at 0.1 µg/mL (Plutella xylostella [2]): 0%; mortality at 0.5 µg/mL (Plutella xylostella [3]): 0%; mortality at 1 µg/mL (Plutella xylostella [4]): 33%; mortality at 5 µg/mL (Plutella xylostella [5]): 100%
COc1cc(NC(=O)c2cccc(I)c2C(=O)NC(C)(C)CSC)cc(C(F)(F)F)c1	–	0	5	–
COCC(C)(C)NC(=O)c1c(I)cccc1C(=O)Nc1cc(C(F)(F)F)ccc1F	–	6	12	–
CC(C)(CS(C)(=O)=O)NC(=O)c1c(I)cccc1C(=O)Nc1cc(C(F)(F)F)ccc1F	–	43	67	–
CC(C)(C)NC(=O)c1c(I)cccc1C(=O)Nc1cc(C(F)(F)F)ccc1F	–	57	62	–
COc1ccc(NC(=O)c2cccc(I)c2C(=O)NC(C)(C)CSC)cc1C(F)(F)F	–	5	50	–
CSCC(C)(C)NC(=O)c1c(I)cccc1C(=O)Nc1cc(C(F)(F)F)cc(C(F)(F)F)c1	–	71	85	–
Cc1cc(C(F)(C(F)(F)F)C(F)(F)F)ccc1NC(=O)c1cccc(I)c1C(=O)NC(C)(C)CS(C)(=O)=O [FLUBENDIAMIDE]	67	100	–	LC50 (Plutella xylostella [1]): 0.15 µg/mL (≈ 0.22 µM); mortality at 0.1 µg/mL (Plutella xylostella [2]): 20%; mortality at 0.5 µg/mL (Plutella xylostella [3]): 90%; mortality at 1 µg/mL (Plutella xylostella [4]): 95%; mortality at 5 µg/mL (Plutella xylostella [5]): 100%; mortality at 10 µg/mL (Plutella xylostella [9]): 100%
CSCC(C)(C)NC(=O)c1c(I)cccc1C(=O)Nc1cccc(C(F)(F)F)c1	90	100	–	mortality at 10 µg/mL (Plutella xylostella [9]): 100%

SMILES	mortality at 10 µg/mL (Plutella xylostella [6]) [%]	mortality at 100 µg/mL (Plutella xylostella [7]) [%]	mortality at 100 µg/mL (Plutella xylostella [8]) [%]	further results
COCC(C)(C)NC(=O)c1c(I)cccc1C(=O)Nc1cc(C(F)(F)F)ccc1OC	–	0	0	–
CC(C)(CS(C)(=O)=O)NC(=O)c1c(I)cccc1C(=O)Nc1ccc(F)c(C(F)(F)F)c1	100	100	–	mortality at 0.1 µg/mL (Plutella xylostella [2]): 0%; mortality at 0.5 µg/mL (Plutella xylostella [3]): 5%; mortality at 1 µg/mL (Plutella xylostella [4]): 29%; mortality at 5 µg/mL (Plutella xylostella [5]): 100%
COCC(C)(C)NC(=O)c1c(I)cccc1C(=O)Nc1cc(F)cc(C(F)(F)F)c1	–	10	19	–
CSCC(C)(C)NC(=O)c1c(I)cccc1C(=O)Nc1cc(C(F)(F)F)ccc1F	–	41	65	–
CC(C)(CS(C)(=O)=O)NC(=O)c1c(I)cccc1C(=O)Nc1cc(F)cc(C(F)(F)F)c1	57	100	–	mortality at 10 µg/mL (Plutella xylostella [9]): 91%
COc1cc(NC(=O)c2cccc(I)c2C(=O)NC(C)(C)CS(C)(=O)=O)cc(C(F)(F)F)c1	–	0	0	–
COCC(C)(C)NC(=O)c1c(I)cccc1C(=O)Nc1ccc(Cl)c(C(F)(F)F)c1	–	5	52	–
CC(C)(CS(C)(=O)=O)NC(=O)c1c(I)cccc1C(=O)Nc1cccc(C(F)(F)F)c1	95	100	–	mortality at 10 µg/mL (Plutella xylostella [9]): 100%
CC(C)(CS(C)(=O)=O)NC(=O)c1c(I)cccc1C(=O)Nc1ccc(Cl)c(C(F)(F)F)c1	100	100	–	LC50 (Plutella xylostella [1]): 0.98 µg/mL (≈ 1.63 µM); mortality at 0.1 µg/mL (Plutella xylostella [2]): 4.8%; mortality at 0.5 µg/mL (Plutella xylostella [3]): 29%; mortality at 1 µg/mL (Plutella xylostella [4]): 52%; mortality at 5 µg/mL (Plutella xylostella [5]): 100%
COCC(C)(C)NC(=O)c1c(I)cccc1C(=O)Nc1cc(C(F)(F)F)cc(C(F)(F)F)c1	–	0	0	–
CSCC(C)(C)NC(=O)c1c(I)cccc1C(=O)Nc1ccc(C#N)c(C(F)(F)F)c1	6	100	–	mortality at 10 µg/mL (Plutella xylostella [9]): 42%
COCC(C)(C)NC(=O)c1c(I)cccc1C(=O)Nc1ccc(C#N)c(C(F)(F)F)c1	–	0	0	–
COCC(C)(C)NC(=O)c1c(I)cccc1C(=O)Nc1ccc(OC)c(C(F)(F)F)c1	–	0	0	–
CSCC(C)(C)NC(=O)c1c(I)cccc1C(=O)Nc1cc(F)cc(C(F)(F)F)c1	43	90	100	mortality at 10 µg/mL (Plutella xylostella [9]): 100%
COc1cc(NC(=O)c2cccc(I)c2C(=O)NC(C)(C)C)cc(C(F)(F)F)c1	–	10	10	–
CC(C)(CS(C)(=O)=O)NC(=O)c1c(I)cccc1C(=O)Nc1ccc(C#N)c(C(F)(F)F)c1	0	57	100	mortality at 10 µg/mL (Plutella xylostella [9]): 50%
COc1ccc(NC(=O)c2cccc(I)c2C(=O)NC(C)(C)CS(C)(=O)=O)cc1C(F)(F)F	–	0	0	–
CC(C)(C)NC(=O)c1c(I)cccc1C(=O)Nc1cccc(C(F)(F)F)c1	50	100	–	mortality at 10 µg/mL (Plutella xylostella [9]): 100%

From ChEMBL document CHEMBL3045090, “Synthesis, insecticidal activity, and structure-activity relationship of trifluoromethyl-containing phthalic acid diamide structures” (2010)
